Source: patent publication US20140163226A1, “NOVEL PYRIMIDINE DERIVATIVE AND PHARMACEUTICAL COMPOSITION INCLUDING SAME AS AN ACTIVE INGREDIENT” (HANMI PHARMACEUTICAL CO., LTD., priority 2011, published 2014)
pIC50: −log10 of the molar value.

Molecular target: T1, DGAT1 (Homo sapiens, UniProt O75907)
T1 construct: host or cells: HepG2 cell homogenate (supernatant after sonication and 2000×g centrifugation)
T1 sequence (O75907 1-488): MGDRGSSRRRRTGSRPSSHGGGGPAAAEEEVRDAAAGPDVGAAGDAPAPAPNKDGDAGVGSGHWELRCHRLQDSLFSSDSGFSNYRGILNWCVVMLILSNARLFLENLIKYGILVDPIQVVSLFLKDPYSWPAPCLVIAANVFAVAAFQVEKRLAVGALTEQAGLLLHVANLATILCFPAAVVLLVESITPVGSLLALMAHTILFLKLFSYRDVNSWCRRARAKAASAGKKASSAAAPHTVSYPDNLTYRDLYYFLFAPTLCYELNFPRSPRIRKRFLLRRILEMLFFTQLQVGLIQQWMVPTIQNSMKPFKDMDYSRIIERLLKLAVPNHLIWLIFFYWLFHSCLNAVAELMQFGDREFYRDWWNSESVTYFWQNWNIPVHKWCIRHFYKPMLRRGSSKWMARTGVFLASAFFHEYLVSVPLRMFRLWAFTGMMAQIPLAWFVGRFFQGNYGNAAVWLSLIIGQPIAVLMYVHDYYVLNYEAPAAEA
Test: Assay for inhibition of DGAT1 activity (IC50), in vitro enzymatic assay using homogenates of HepG2 cell line
Type: biochemical
Conditions: inhibitory activity against DGAT1; HepG2 protein (25 μg), 1,2-dioleoyl-sn-glycerol (30 μM), 14C oleoyl coenzyme A (10 μM), room temperature, 60 mins
Description: In order to identify DGAT1 inhibitors, in vitro enzymatic assays were performed by using homogenates of HepG2 cell line (ATCC, USA, HB-8065). Briefly stated, HepG2 cells were inoculated in 10% FBS-supplemented medium at 1.0×10^7 cells/well, cultured at 37° C., and harvested 72 hrs later. The harvested cells were lysed by ultrasonic treatment, and centrifuged for at 4° C. (2000×g, 10 mins) to remove any uncracked cells and impurities. The supernatant thus formed was obtained, and stored at −70° C. after its protein contents were quantitatively analyzed.
DGAT1 activation was assayed by a modification of the method described by Coleman (Methods in Enzymology, 1992, 209, 98-102). The compound of the present invention ([…]) was incubated with HepG2 protein (25 μg), MgCl2 (150 mM) and 1,2-dioleoyl-sn-glycerol (30 μM) in a total assay volume of 200 μL in plastic tubes.
The reaction was started by adding ^14C oleoyl coenzyme A (10 μM final concentration) and incubated at room temperature for 60 mins. The reaction was ended when a mixed solution (300 μL) of 2-propanol and heptane (7:1) was added thereto. Radioactive triolein product was separated into the organic phase by adding heptane (200 μL) and 1.0 M carbonate buffer (200 μL, pH 9.5). DGAT1 activity was quantified by counting aliquots of the upper heptane layer by liquid […].

O=C(O)Cc1ccc(-c2csc3c(-c4ccc(NC(=O)NC5CCCCC5)cc4)ncnc23)cc1 [Example 16, 2-(4-(4-(4-(3-cyclohexylureido)phenyl)thieno[3,2-d]pyrimidin-7-yl)phenyl)acetic acid]
pIC50: > 9.00
